A value given as a limit tells only on which side of the number the result lay.

Consider 33 compounds from patent publication US9073821B2, “Hydroxamic acid derivative” (priority 2010, dated 2015).

The first test concerns the target Pseudomonas aeruginosa LpxC enzyme (Pseudomonas aeruginosa (strain ATCC 15692 / DSM 22644 / CIP 104116 / JCM 14847 / LMG 12228 / 1C / PRS 101 / PAO1), UniProt P47205). The test can be described thus: biochemical. It is filed as biochemical. The following applies: class symbols A/B/C by IC50; Table 3; read-out: Enzyme inhibitory activity (inhibitory activity on Pseudomonas aeruginosa LpxC enzyme).
`CNC(=O)C(C(=O)NO)N(C)C(=O)c1ccc(C#CC2CC2)cc1` (stereo not drawn) [Compound 503, 2-[{[4-(cyclopropylethynyl)phenyl]carbonyl}(methyl)amino]-N-hydroxy-N′-methylpropanediamide]: the IC50 is more than 100 nM. Take `CCOC1CN(Cc2ccc(C#Cc3ccc(C(=O)N(C)C(C(=O)NC)C(=O)NO)cc3)c(F)c2)C1` (stereo not drawn) [Compound 564, 2-[{[4-({4-[(3-ethoxyazetidin-1-yl)methyl]-2-fluorophenyl}ethynyl)phenyl]carbonyl}(methyl)amino]-N-hydroxy-N′-methylpropanediamide]: the IC50 was less than 10 nM.

Staying with this test, now noted: inhibitory activity on Pseudomonas aeruginosa LpxC enzyme, class symbols A/B/C; read-out: Enzyme inhibitory activity.
On to `CNC(=O)C(C(=O)NO)N(C)C(=O)c1ccc(-c2ccc(NCCCN3CCOCC3)cc2)cc1` (stereo not drawn) [Compound 86, N-hydroxy-N′-methyl-2-{methyl[(4′-{[3-(morpholin-4-yl)propyl]amino}biphenyl-4-yl)carbonyl]amino}propanediamide], for which the IC50 lay within 10 to 100 nM. As for `CNC(=O)C(C(=O)NO)N(C)C(=O)c1ccc(-c2ccc(/N=C/NO)cc2)cc1` (stereo not drawn) [Compound 272, N-hydroxy-2-{[(4′-{[(E)-(hydroxyamino)methylidene]amino}biphenyl-4-yl)carbonyl](methyl)amino}-N′-methylpropanediamide], the IC50 is less than 10 nM. Turning to `CNC(=O)C(C(=O)NO)N(CCOC)C(=O)c1ccc(-c2ccccc2)cc1` (stereo not drawn) [Compound 166, 2-[(biphenyl-4-ylcarbonyl)(2-methoxyethyl)amino]-N-hydroxy-N′-methylpropanediamide], the IC50 lay within 10 to 100 nM. On the same count and under the same terms, the result for `O=C(NC(C(=O)NO)C(=O)NCC1CN(Cc2ccccc2)CCO1)c1ccc(-c2ccc(OCCO)cc2)cc1` (stereo not drawn) [Compound 160, N-[(4-benzylmorpholin-2-yl)methyl]-N′-hydroxy-2-({[4′-(2-hydroxyethoxy)biphenyl-4-yl]carbonyl}amino)propanediamide] reads less than 10 nM; that for `CNC(=O)C(C(=O)NO)N(C)C(=O)c1ccc(C#Cc2ccc(CNCc3cc(C)on3)cc2)cc1` (stereo not drawn) [Compound 482, N-hydroxy-N′-methyl-2-{methyl[(4-{[4-({[(5-methyl-1,2-oxazol-3-yl)methyl]amino}methyl)phenyl]ethynyl}phenyl)carbonyl]amino}propanediamide], less than 10 nM; that for `CNC(=O)C(C(=O)NO)N(C)C(=O)c1ccc(-c2ccc(OCCF)cc2)cc1` (stereo not drawn) [Compound 255, 2-[{[4′-(2-fluoroethoxy)biphenyl-4-yl]carbonyl}(methyl)amino]-N-hydroxy-N′-methylpropanediamide], less than 10 nM. In the case of `CNC(=O)C(C(=O)NO)N(C)C(=O)c1ccc(-c2ccc3ncsc3c2)cc1` (stereo not drawn) [Compound 199, 2-{[4-(1,3-benzothiazol-6-yl)benzoyl](methyl)amino}-N-hydroxy-N′-methylpropanediamide], the IC50 is less than 10 nM. As for `CC(C)NC(=O)C(NC(=O)c1ccc(-c2ccc(OCCO)cc2)cc1)C(=O)NO` (stereo not drawn) [Compound 143, N-hydroxy-2-({[4′-(2-hydroxyethoxy)biphenyl-4-yl]carbonyl}amino)-N′-(propan-2-yl)propanediamide], the IC50 fell in the range of 10 to 100 nM. The same measure, in the same setting: the result for `CNC(=O)C(C(=O)NO)N(C)C(=O)c1ccc(-c2ccc(OCc3cccc(CN4CCOCC4)c3)cc2)cc1` (stereo not drawn) [Compound 87, N-hydroxy-N′-methyl-2-{methyl[(4′-{[3-(morpholin-4-ylmethyl)benzyl]oxy}biphenyl-4-yl)carbonyl]amino}propanediamide] reads less than 10 nM; that for `CN(C)CCNC(=O)C(NC(=O)c1ccc(-c2ccc(OCCO)cc2)cc1)C(=O)NO` (stereo not drawn) [Compound 123, N-[2-(dimethylamino)ethyl]-N′-hydroxy-2-({[4′-(2-hydroxyethoxy)biphenyl-4-yl]carbonyl}amino)propanediamide], more than 100 nM; that for `CNC(=O)C(C(=O)NO)N(C)C(=O)c1ccc(-c2ccc(NCCCCO)cc2)cc1` (stereo not drawn) [Compound 20, N-hydroxy-2-[({4′-[(4-hydroxybutyl)amino]biphenyl-4-yl}carbonyl)(methyl)amino]-N′-methylpropanediamide], 10 to 100 nM.

Regarding `CNC(=O)C(C(=O)NO)N(C)C(=O)c1ccc(-c2cc(F)c(NC)cc2F)cc1` (stereo not drawn) [Compound 67, 2-[{[2′,5′-difluoro-4′-(methylamino)biphenyl-4-yl]carbonyl}(methyl)amino]-N-hydroxy-N′-methylpropanediamide], the IC50 is less than 10 nM. On the same count and under the same terms, the result for `CNC(=O)C(C(=O)NO)N(C)C(=O)c1ccc(-c2ccc(CCCO)cc2)cc1` (stereo not drawn) [Compound 165, N-hydroxy-2-[{[4′-(3-hydroxypropyl)biphenyl-4-yl]carbonyl}(methyl)amino]-N′-methylpropanediamide] reads less than 10 nM.

Turning to `CNC(=O)C(C(=O)NO)N(C)C(=O)c1ccc(-c2ccc(CN(C)C(C)=O)cc2)cc1` (stereo not drawn) [Compound 239, 2-{[(4′-{[acetyl(methyl)amino]methyl}biphenyl-4-yl)carbonyl](methyl)amino}-N-hydroxy-N′-methylpropanediamide], the IC50 lay within 10 to 100 nM. Regarding `CN(C(=O)c1ccc(-c2ccccc2)cc1)C(C(=O)NO)C(=O)NCc1cccnc1` (stereo not drawn) [Compound 177, 2-[(biphenyl-4-ylcarbonyl)(methyl)amino]-N-hydroxy-N′-(pyridin-3-ylmethyl)propanediamide], the IC50 was in the range of 10 to 100 nM. With `CNC(=O)C(C(=O)NO)N(C)C(=O)c1ccc(C#Cc2coc(CN3CCOCC3)c2)cc1` (stereo not drawn) [Compound 483, N-hydroxy-N′-methyl-2-{methyl[(4-{[5-(morpholin-4-ylmethyl)furan-3-yl]ethynyl}phenyl)carbonyl]amino}propanediamide], the IC50 is less than 10 nM. In the case of `CNC(=O)C(C)(NC(=O)c1ccc(-c2ccccc2)cc1)C(=O)NO` (stereo not drawn) [Compound 164, 2-[(Biphenyl-4-ylcarbonyl)amino]-N-hydroxy-N′,2-dimethylpropanediamide], the IC50 is more than 100 nM. Regarding `CNC(=O)C(C(=O)NO)N(C)C(=O)c1ccc(C#Cc2ccc3c(c2)CN(C2CC2)C3)cc1` (stereo not drawn) [Compound 385, 2-[({4-[(2-cyclopropyl-2,3-dihydro-1H-isoindol-5-yl)ethynyl]phenyl}carbonyl)(methyl)amino]-N-hydroxy-N′-methylpropanediamide], the IC50 was less than 10 nM. For the compound `CNC(=O)C(C(=O)NO)N(C)C(=O)c1ccc(C#Cc2ccc(CNCc3ncco3)cc2)cc1` (stereo not drawn) [Compound 485, N-hydroxy-N′-methyl-2-[methyl({4-[(4-{[(1,3-oxazol-2-ylmethyl)amino]methyl}phenyl)ethynyl]phenyl}carbonyl)amino]propanediamide], the IC50 was less than 10 nM. With `CNC(=O)C(C(=O)NO)N(C)C(=O)c1ccc(-c2ccc(OCc3ccc(-c4nnn[nH]4)cc3)cc2)cc1` (stereo not drawn) [Compound 93, N-hydroxy-N′-methyl-2-{methyl[(4′-{[4-(1H-tetrazol-5-yl)benzyl]oxy}biphenyl-4-yl)carbonyl]amino}propanediamide], the IC50 is 10 to 100 nM.

With `CNC(=O)C(C(=O)NO)N(C)C(=O)c1ccc(-c2ccc3c(c2)COC3)cc1` (stereo not drawn) [Compound 290, 2-[{[4-(1,3-dihydro-2-benzofuran-5-yl)phenyl]carbonyl}(methyl)amino]-N-hydroxy-N′-methylpropanediamide], the IC50 is less than 10 nM. For the compound `O=C(NC(C(=O)NO)C(=O)NCc1ccncc1)c1ccc(-c2ccc(OCCO)cc2)cc1` (stereo not drawn) [Compound 124, N-hydroxy-2-({[4′-(2-hydroxyethoxy)biphenyl-4-yl]carbonyl}amino)-N′-(pyridin-4-ylmethyl)propanediamide], the IC50 was less than 10 nM.

With `CNC(=O)C(C(=O)NO)N(C)C(=O)c1ccc(C#Cc2ccc(CCN3CCOCC3)cc2)cc1` (stereo not drawn) [Compound 206, N-hydroxy-N′-methyl-2-{methyl[4-({4-[2-(morpholin-4-yl)ethyl]phenyl}ethynyl)benzoyl]amino}propanediamide], the IC50 is less than 10 nM.

In the case of `CNC(=O)C(C(=O)NO)N(C)C(=O)c1cnc(-c2ccccc2)cn1` (stereo not drawn) [Compound 299, N-hydroxy-N′-methyl-2-{methyl[(5-phenylpyrazin-2-yl)carbonyl]amino}propanediamide], the IC50 was more than 100 nM. With `CNC(=O)C(C(=O)NO)N(C)C(=O)c1ccc(-c2ccc(CNCC(F)F)cc2)cc1` (stereo not drawn) [Compound 204, 2-{[(4′-{[(2,2-difluoroethyl)amino]methyl}biphenyl-4-yl)carbonyl](methyl)amino}-N-hydroxy-N′-methylpropanediamide], the IC50 was 10 to 100 nM. As to `CNC(=O)C(C(=O)NO)N(C)C(=O)c1ccc(-c2ccc(OCCN3CCOCC3)cc2)cc1` (stereo not drawn) [Compound 243, N-hydroxy-N′-methyl-2-[methyl({4′-[2-(morpholin-4-yl)ethoxy]biphenyl-4-yl}carbonyl)amino]propanediamide], the IC50 is 10 to 100 nM. The same measure, in the same setting: the value for `CNC(=O)C(C(=O)NO)N(C)C(=O)c1ccc(-c2ccccc2C)cc1` (stereo not drawn) [Compound 18, N-hydroxy-N′-methyl-2-{methyl[(2′-methylbiphenyl-4-yl)carbonyl]amino}propanediamide] was 10 to 100 nM; that for `CNC(=O)C(NC(=O)c1ccc(-c2ccc(OCCOCCOCCO)cc2)cc1)C(=O)NO` (stereo not drawn) [Compound 13, N-hydroxy-2-{[(4′-{2-[2-(2-hydroxyethoxy)ethoxy]ethoxy}biphenyl-4-yl)carbonyl]amino}-N′-methylpropanediamide] was 10 to 100 nM; that for `CNC(=O)C(C)(C(=O)NO)N(C)C(=O)c1ccc(-c2ccc(OCCCN3CCOCC3)cc2)cc1` (stereo not drawn) [Compound 350, N-hydroxy-N′,2-dimethyl-2-[methyl({4′-[3-(morpholin-4-yl)propoxy]biphenyl-4-yl}carbonyl)amino]propanediamide] was less than 10 nM. Take `CNC(=O)C(C(=O)NO)N(C)C(=O)c1ccc(-c2ccc(CN(C)OC)cc2)cc1` (stereo not drawn) [Compound 259, N-hydroxy-2-{[(4′-{[methoxy(methyl)amino]methyl}biphenyl-4-yl)carbonyl](methyl)amino}-N′-methylpropanediamide]: the IC50 was in the range of 10 to 100 nM. In the case of `CNC(=O)C(C(=O)NO)N(C)C(=O)c1ccc(-c2ccc(N3CCCC3)cc2)cc1` (stereo not drawn) [Compound 256, N-hydroxy-N′-methyl-2-(methyl {[4′-(pyrrolidin-1-yl)biphenyl-4-yl]carbonyl}amino)propanediamide], the IC50 is less than 10 nM.
